The results in this text go back to PubChem BioAssay (NCI).

Structures are written as SMILES.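 Briefly, cells in 96-well plates were exposed to five compound concentrations for 48 h, and endpoints were estimated by linear interpolation. The concentration for 50% growth inhibition is given as GI50. TGI: total growth inhibition.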

Holding throughout (assay): growth of human tumour cells (NCI), 48 h
Assay [1] relates to SK-MEL-2 melanoma.
The subject of assay [2] is SK-MEL-28 melanoma.
For assay [3], the system named is SF-268 CNS.
Assay [4] has as its system A498 renal.
Assay [5] relates to 786-0 renal.
In assay [6] the test system is SF-539 CNS.
The subject of assay [7] is MALME-3M melanoma.
Assay [8] concerns SF-295 CNS.

For the molecule `COC(=O)c1c[nH]c2cc(OC(C)C)c(OC(C)C)cc2c1=O`, the GI50 in assay [1], in assay [2], in assay [3], in assay [4], in assay [5] and in assay [6] was greater than 100 µM in each case. The GI50 in assay [7] was greater than 100 µM. Also, the TGI in assay [1], in assay [2], in assay [3], in assay [4], in assay [5] and in assay [6] was greater than 100 µM throughout. In assay [7], the TGI is greater than 100 µM.

On to `O=C(Nc1nc(-c2ccc(Cl)cc2)cs1)c1cc(O)c(O)c(O)c1`, for which the GI50 in assay [2] was 303 µM; in assay [3], 146 µM; in assay [4], 927 µM; in assay [5] it was 218 µM; in assay [8] it was 544 µM; in assay [6] it was 173 µM. For the same molecule, the GI50 in assay [7] was 266 µM. Besides, the TGI in assay [2] is greater than 5000 µM; in assay [3] it was 1400 µM; in assay [4] it was 3480 µM; in assay [5], 1020 µM; in assay [8], 3280 µM; in assay [6], 843 µM. In assay [7], this molecule showed a TGI of 2980 µM.

As to `COc1cc(C(=O)/C=C/c2cc(-c3ccc4c(c3)OCO4)n[nH]2)cc(OC)c1OC`, the GI50 in assay [2] is 1.92 µM; in assay [3] it was 2.45 µM; in assay [4] it was 1.75 µM; in assay [5], 1.84 µM; in assay [8], 2.58 µM; in assay [6], 1.33 µM. In addition, in assay [7], the GI50 was 1.85 µM. The TGI in assay [2] was 4.18 µM; in assay [3] it was 7.64 µM; in assay [4] it was 4.65 µM; in assay [5] it was 3.46 µM; in assay [8], 10.1 µM; in assay [6], 2.98 µM. In addition, in assay [7], the TGI is 4.69 µM.

With `COc1cc(-c2nn(-c3ccc(NC(=O)Nc4cc(C(F)(F)F)cc(C(F)(F)F)c4)cc3)cc2-c2ccncc2)ccc1Cl`, the GI50 is 1.7 µM in assay [1]; 1.93 µM in assay [2]; 2.47 µM in assay [3]; 1.81 µM in assay [4]; 2.48 µM in assay [5]; 1.1 µM in assay [8]. Besides, the GI50 in assay [6] was 1.64 µM. In addition, the TGI in assay [1] stood at 3.43 µM; in assay [2], 3.74 µM; in assay [3], 7.3 µM; in assay [4], 3.79 µM; in assay [5] it was 6.39 µM; in assay [8], 2.63 µM. This molecule gave a TGI in assay [6] of 3.71 µM.

With `O=C(/C=C/c1ccccc1)c1cccc2ccccc12`, the GI50 in assay [1] is 2.97 µM; in assay [2], 5.02 µM; in assay [3], 1.99 µM; in assay [4], 2.3 µM; in assay [5], 2.82 µM; in assay [6] it was 3.5 µM. For the same molecule, in assay [7], the GI50 is 6.12 µM. The TGI in assay [1] turned out to be 8.3 µM; in assay [2], 16.6 µM; in assay [3] it was 5.13 µM; in assay [4], 6.75 µM; in assay [5], 7.25 µM; in assay [6], 11 µM. In addition, in assay [7], the TGI was 22.4 µM.

Take `O=S1(=O)c2ccccc2N(c2ccccc2)c2nnnn21`: the TGI was greater than 100 µM in assay [1]; 92.9 µM in assay [2]; greater than 100 µM in assay [3]; 55.4 µM in assay [4]; 32.7 µM in assay [5]; greater than 100 µM in assay [8]. In assay [6], this molecule registered a TGI of 35.7 µM.

`CC12OC(CC(O)C1O)n1c3ccccc3c3c4c(c5c6ccccc6n2c5c31)C(=O)N(CCN1CCOCC1)C4=O` (configuration not stated): the GI50 in assay [1] is 2.18 µM; in assay [2], 2.16 µM; in assay [3] it was 1.08 µM; in assay [4], 0.838 µM; in assay [5] it was 1.29 µM; in assay [8], 0.598 µM. Further, the GI50 in assay [7] is 0.921 µM. The TGI turned out to be 10.6 µM in assay [1]; 8.57 µM in assay [2]; 7.87 µM in assay [3]; 3.27 µM in assay [4]; 5.68 µM in assay [5]; 3.17 µM in assay [8]. The TGI in assay [7] is 5.27 µM.

On to `Nc1ccccc1C#C/C=C\C#Cc1ccccc1C#CCO`, for which the GI50 in assay [1] is 8.35 µM; in assay [2], 15.3 µM; in assay [3] it was 7.6 µM; in assay [5] it was 6.39 µM; in assay [8], 6.8 µM; in assay [6], 10.8 µM. Also, the TGI is 24.2 µM in assay [1]; greater than 50 µM in assay [2]; 24.3 µM in assay [3]; 17.8 µM in assay [5]; 16.7 µM in assay [8]; 27.1 µM in assay [6].

In the case of `C=CCn1c2ccccc2c2c3c(c4c5ccccc5n(CC=C)c4c21)C(=O)N(O)C3=O`, the GI50 in assay [1] was 13 µM; in assay [2], 5.47 µM; in assay [3], 3.72 µM; in assay [4] it was 2.55 µM; in assay [5], 2.66 µM; in assay [8] it was 2.62 µM. For the same molecule, in assay [7], the GI50 was 6.91 µM. In addition, the TGI in assay [1] was 46.1 µM; in assay [2], greater than 100 µM; in assay [3], 32.4 µM; in assay [4] it was 9.48 µM; in assay [5] it was 40.4 µM; in assay [8] it was 8.62 µM. The same molecule gave a TGI in assay [7] of 26.7 µM.
